# From patent publication US8158656B2, “2-indolinone derivatives as multi-target protein kinase inhibitors and histone deacetylase inhibitors” (Shenzhen Chipscreen Biosciences Ltd., priority 2008, dated 2012)
# Tests used:
# [1] = test system: Bel-7402; assay: Tumor cell proliferation (MTS), Bel-7402; assay type: cell-based; details: Homo sapiens, Bel-7402, 72 hours
# Protocol: (§1) Measurement of in vivo cell proliferation:
# (§2) Tumor cells were trypsinized and plated into 96-well plates at 3,000 per well and incubated in complete medium with 10% FBS for 24 hours. Compounds were added over a final concentration range of 100 μmol/L to 100 nmol/L in 0.1% DMSO and incubated for 72 hours in complete medium. The effects on proliferation were determined by addition of MTS reagent (Promega) according to the instruction, incubation for 2 hours at 37° C. in CO2 incubator, and record the absorbance at 490 nm using an ELISA plate reader.
# [2] = test system: Ramos; assay: Tumor cell proliferation (MTS), Ramos; assay type: cell-based; details: Homo sapiens, 72 hours
# Protocol: as §1, §2
# [3] = test system: Hut-78; assay: Tumor cell proliferation (MTS), Hut-78; assay type: cell-based; details: Homo sapiens, HuT78, Hut-78, 72 hours
# Protocol: as §1, §2
# [4] = test system: HDAC4/5; assay: MEF2 reporter assay in HeLa cells; assay type: cell-based, human; details: for HDAC4/5 (MEF2 reporter assay) % Max Resp of CS055 at 3 μM: relative to CS055 at 3 μM; for EC50: 24 hours
# Protocol: HDAC subtype selectivity inhibition assay of tested compounds was carried out by several reporter gene assays experiments. Briefly, HeLa cells were seeded in 96-well plates the day before transfection to give a confluence of 50-80%. Cells were transfected with one of reporter gene plasmid containing a promoter sequence or response element upstream of a luciferase gene construct using FuGene6 transfection reagent according to the manufacturer's instruction (Roche). The promoters or response elements including p21-promoter, gdf11-promoter, MEF-binding element (MEF2), Nur77-promoter were fused upstream to the luciferase gene reporter construct. For normalizing the transfection efficiency, a GFP expression plasmid was cotransfected. Cells were allowed to express protein for 24 hours followed by addition of individual compounds or the vehicle (DMSO). 24 hours later the cells were harvested, and the luciferase assay and GFP assay were performed using corresponding assay kits according to the manufacturer's instructions (Promega).
# [5] = test system: HeLa; assay: Tumor cell proliferation (MTS), HeLa; assay type: cell-based; details: Homo sapiens, 72 hours
# Protocol: as §1, §2
# [6] = test system: HCT-8; assay: Tumor cell proliferation (MTS), HCT-8; assay type: cell-based; details: Homo sapiens, HCT-8, 72 hours
# Protocol: as §1, §2
# [7] = test system: total HDAC enzyme; assay: Total HDAC enzyme activity, HDAC Fluorimetric Assay (HeLa extract); assay type: biochemical, human
# Protocol: Measurement of in vitro inhibition of total HDAC enzyme activity:
# The in vitro inhibition of total HDAC enzyme was determined by HDAC Fluorimetric Assay/Drug Discovery Kit (BIOMOL) according to manufacture's instruction. • 1. Add Assay buffer, diluted trichostatin A or test inhibitor to appropriate wells of the microtiter plate. Following table lists examples of various assay types and the additions required for each test.
# • 2. Add diluted HeLa extract or other HDAC sample to all wells except those that are to be “No Enzyme Controls” (Blank). • 3. Allow diluted Fluor de Lys™ Substrate and the samples in the microtiter plate to equilibrate to assay temperature (25° C.). • 4. Initiate HDAC reactions by adding diluted substrate (25 μl) to each well and mixing thoroughly. • 5. Allow HDAC reactions to proceed for desired length of time and then stop them by addition of Fluor de Lys™ Developer (50 μl). Incubate plate at room temperature (25° C.) for 10-15 min. • 6. Read samples in a microtiter-plate reading fluorimeter capable of excitation at a wavelength in the range 350-380 nm and detection of emitted light in the range 440-460 nm. Measurement of in vivo inhibition of HDAC subtype activity: […]
# [8] = test system: Raji; assay: Tumor cell proliferation (MTS), Raji; assay type: cell-based; details: Homo sapiens, 72 hours
# Protocol: as §1, §2
# [9] = test system: A549; assay: Tumor cell proliferation (MTS), A549; assay type: cell-based; details: Homo sapiens, A549, 72 hours
# Protocol: as §1, §2
SMILES,GI50 [1] [µM],GI50 [2] [µM],GI50 [3] [µM],GI50 [5] [µM],GI50 [6] [µM],% inhibition of total HDAC enzyme activity at 30 μM [7] [%],GI50 [8] [µM],GI50 [9] [µM],EC50 [4] [µM],HDAC4/5 (MEF2 reporter assay) % Max Resp of CS055 at 3 μM [4] [%]
"Cc1[nH]c(/C=C2\C(=O)Nc3ccc(F)cc32)c(C)c1C(=O)NCCCNc1ccc(C(=O)Nc2ccc(F)cc2N)cn1 [Example 16, (Z)-N-(2-amino-4-fluorophenyl)-6-(3-(2-((5-fluoro-2-oxoindolin-3-ylidene)-methyl)-3,5-dimethyl-1H-pyrrole-4-carboxamido)propylamino)nicotinamide]",> 60,> 60,> 60,> 60,> 60,6.70,> 60,> 60,,−0.2
"Cc1[nH]c(/C=C2\C(=O)Nc3ccc(F)cc32)c(C)c1C(=O)NCCCCNc1ccc(C(=O)Nc2ccccc2N)cn1 [Example 9, (Z)-N-(2-aminophenyl)-6-(4-(2-((5-fluoro-2-oxoindolin-3-ylidene)methyl)-3,5-dimethyl-1H-pyrrole-4-carboxamido)butylamino)nicotinamide]",> 60,> 60,1.67,> 60,> 60,6.30,> 60,> 60,20,53.6
"Cc1[nH]c(/C=N/N=C2\C(=O)Nc3ccc(F)cc32)c(C)c1C(=O)NCCCNc1ccc(C(=O)Nc2ccccc2N)cn1 [Example 7, N-(2-aminophenyl)-6-(3-(2-(((5-fluoro-2-oxoindolin-3-ylidene)hydrazono)-methyl)-3,5-dimethyl-1H-pyrrole-4-carboxamido)propylamino)nicotinamide]",> 60,> 60,> 60,> 60,> 60,7.80,> 60,> 60,,2.6
"Cc1[nH]c(/C=C2\C(=O)Nc3ccc(F)cc32)c(C)c1C(=O)NCCNc1ccc(C(=O)Nc2ccccc2N)cn1 [Example 3, (Z)-N-(2-aminophenyl)-6-(2-(2-((5-fluoro-2-oxoindolin-3-ylidene)methyl)-3,5-dimethyl-1H-pyrrole-4-carboxamido)ethylamino)nicotinamide]",> 60,> 60,1.77,> 60,> 60,9.20,3.45,> 60,2.2,83.2
"Cc1[nH]c(/C=N/N=C2\C(=O)Nc3ccc(F)cc32)c(C)c1C(=O)NCCNc1ccc(C(=O)Nc2ccccc2N)cn1 [Example 4, N-(2-aminophenyl)-6-(2-(2-(((5-fluoro-2-oxoindolin-3-ylidene)hydrazono)-methyl)-3,5-dimethyl-1H-pyrrole-4-carboxamido)ethylamino)nicotinamide]",> 60,> 60,> 60,> 60,> 60,6.90,> 60,> 60,,4.9
"Cc1[nH]c(/C=C2\C(=O)Nc3ccc(F)cc32)c(C)c1C(=O)NCCCNc1ccc(C(=O)Nc2ccccc2N)cn1 [Example 6, (Z)-N-(2-aminophenyl)-6-(3-(2-((5-fluoro-2-oxoindolin-3-ylidene)methyl)-3,5-dimethyl-1H-pyrrole-4-carboxamido)propylamino)nicotinamide]",> 60,> 60,> 60,> 60,> 60,12.50,3.45,> 60,1,44.2
"Cc1[nH]c(/C=C2\C(=O)Nc3ccc(F)cc32)c(C)c1C(=O)NCCNc1ccc(C(=O)Nc2ccc(F)cc2N)cn1 [Example 13, (Z)-N-(2-amino-4-fluorophenyl)-6-(2-(2-((5-fluoro-2-oxoindolin-3-ylidene)-methyl)-3,5-dimethyl-1H-pyrrole-4-carboxamido)ethylamino)nicotinamide]",> 60,> 60,> 60,> 60,> 60,−2.60,> 60,> 60,,0.5

# Further lines, with some results ahead:
GI50 [1] [µM],GI50 [2] [µM],GI50 [3] [µM],GI50 [5] [µM],GI50 [6] [µM],% inhibition of total HDAC enzyme activity at 30 μM [7] [%],GI50 [8] [µM],GI50 [9] [µM],EC50 [4] [µM],SMILES,HDAC4/5 (MEF2 reporter assay) % Max Resp of CS055 at 3 μM [4] [%]
> 60,> 60,> 60,> 60,> 60,1.00,> 60,> 60,,"Cc1[nH]c(/C=N/N=C2\C(=O)Nc3ccc(F)cc32)c(C)c1C(=O)NCCNc1ccc(C(=O)Nc2ccc(F)cc2N)cn1 [Example 14, N-(2-amino-4-fluorophenyl)-6-(2-(2-(((5-fluoro-2-oxoindolin-3-ylidene)-hydrazono)methyl)-3,5-dimethyl-1H-pyrrole-4-carboxamido)ethylamino)nicotinamide]",2.4
> 60,> 60,> 60,> 60,> 60,3.50,> 60,> 60,,"Cc1[nH]c(/C=N/N=C2\C(=O)Nc3ccc(F)cc32)c(C)c1C(=O)NCCCCNc1ccc(C(=O)Nc2ccc(F)cc2N)cn1 [Example 20, N-(2-amino-4-fluorophenyl)-6-(4-(2-(((5-fluoro-2-oxoindolin-3-ylidene)-hydrazono)methyl)-3,5-dimethyl-1H-pyrrole-4-carboxamido)butylamino)nicotinamide]",16.3
> 60,> 60,> 60,> 60,> 60,7.30,> 60,> 60,,"Cc1[nH]c(/C=C2\C(=O)Nc3ccc(F)cc32)c(C)c1C(=O)NCCCCNc1ccc(C(=O)Nc2ccc(F)cc2N)cn1 [Example 19, (Z)-N-(2-amino-4-fluorophenyl)-6-(4-(2-((5-fluoro-2-oxoindolin-3-ylidene)-methyl)-3,5-dimethyl-1H-pyrrole-4-carboxamido)butylamino)nicotinamide]",1.9
> 60,> 60,> 60,> 60,> 60,6.10,> 60,> 60,,"Cc1[nH]c(/C=N/N=C2\C(=O)Nc3ccc(F)cc32)c(C)c1C(=O)NCCCCNc1ccc(C(=O)Nc2ccccc2N)cn1 [Example 10, N-(2-aminophenyl)-6-(4-(2-(((5-fluoro-2-oxoindolin-3-ylidene)hydrazono)-methyl)-3,5-dimethyl-1H-pyrrole-4-carboxamido)butylamino)nicotinamide]",12.8
> 60,> 60,> 60,> 60,> 60,4.00,> 60,> 60,,"Cc1[nH]c(/C=N/N=C2\C(=O)Nc3ccc(F)cc32)c(C)c1C(=O)NCCCNc1ccc(C(=O)Nc2ccc(F)cc2N)cn1 [Example 17, N-(2-amino-4-fluorophenyl)-6-(3-(2-(((5-fluoro-2-oxoindolin-3-ylidene)-hydrazono)methyl)-3,5-dimethyl-1H-pyrrole-4-carboxamido)propylamino)nicotinamide]",10.8
